Results taken from ChEMBL document CHEMBL4765337, “Optical control of muscular nicotinic channels with azocuroniums, photoswitchable azobenzenes bearing two N-methyl-N-carbocyclic quaternary ammonium groups” (Eur J Med Chem, 2020).
Activity calls are given as the source filed them. The calls are words filed in the database; no cut-off is given here.

Tests used:
[1] = (§1) Antagonist activity at rat alpha1beta1gamma1delta1 nAChR expressed in Xenopus laevis oocytes assessed as inhibition of ACh puff-induced maximum channel current amplitude using UV LED light irradiated compound measured at holding potential of -60 mV by two-electrode voltage clamp technique; assay type: cell-based; details: oocyte
Oocyte [2] = assay: as §1, with “amplitude by measuring current fraction ratio” for “amplitude”; assay type: cell-based
Oocyte [3] = assay: as §1, with “at 0.1 to 5 uM measured following irradiation with” for “using”, “irradiation” for “irradiated compound measured”; assay type: cell-based; details: dose 0.1-5 µM
[4] = biological target: T1, Neuronal acetylcholine receptor; alpha4/beta2 (Homo sapiens, UniProt P17787+P43681); assay: Displacement of [125I] alpha bungarotoxin from human neuronal alpha4beta2 nAChR expressed in human SH-SY5Y cell membrane at 10 uM measured after 120 mins by Topcount scintillation counting method; assay type: cell membranes
Oocyte [5] = assay: as §1, with “constant UV LED light irradiation-induced channel activation by measuring faster decay of Ach-induced” for “ACh puff-induced maximum”, “amplitude at 0.5 uM” for “amplitude”, “blue” for “UV”; assay type: cell-based; details: filed as antagonist
RAW264.7 = assay: Cytotoxicity against mouse RAW264.7 cells assessed as cell viability at 10 uM measured after 24 hrs by MTT assay; assay type: cell-based; details: raw264.7, 24 h
[6] = Antagonist activity at rat alpha1beta1gamma1delta1 nAChR expressed in Xenopus laevis oocytes assessed as inhibition of ACh puff-induced maximum channel current amplitude measured at holding potential of -60 mV by two-electrode voltage clamp technique; assay type: cell-based; details: oocyte
Oocyte [7] = assay: (§2) Antagonist activity at rat alpha1beta1gamma1delta1 nAChR expressed in Xenopus laevis oocytes assessed as inhibition of ACh puff-induced maximum channel current amplitude at 5 uM measured at holding potential of -60 mV by two-electrode voltage clamp technique; assay type: cell-based; details: filed as antagonist
[8] = biological target: T2, Neuronal acetylcholine receptor subunit alpha-7 (Homo sapiens, UniProt P36544); assay: Displacement of [125I] alpha bungarotoxin from human neuronal alpha7 nAChR expressed in human SH-SY5Y cell membrane measured after 120 mins by Topcount scintillation counting method; assay type: cell membranes
Oocyte [9] = assay: Antagonist activity at rat alpha1beta1gamma1delta1 nAChR expressed in Xenopus laevis oocytes assessed as inhibition of ACh puff-induced maximum channel current amplitude at 0.1 to 5 uM measured at holding potential of -60 mV by two-electrode voltage clamp technique; assay type: cell-based; details: filed as antagonist, dose 0.1-5 µM
Homo sapiens [10] = organism: Homo sapiens; assay: Selectivity index, ratio of Ki for human neuronal alpha7 nAChR expressed in human SH-SY5Y cell membrane to Ki for human muscle type nAChR expressed in human TE-671 cell membrane; assay type: cell-based
[11] = Effective permeability of compound measured after 240 mins by PAMPA-BBB assay based UV/Vis spectrophotometer analysis; assay type: ADME; details: read-out: Peff
[12] = biological target: T1, Neuronal acetylcholine receptor; alpha4/beta2; assay: Displacement of [125I] alpha bungarotoxin from human neuronal alpha4beta2 nAChR expressed in human SH-SY5Y cell membrane measured after 120 mins by Topcount scintillation counting method; assay type: cell membranes
[13] = Displacement of [125I] alpha bungarotoxin from human muscle type nAChR expressed in human TE-671 cell membrane measured after 120 mins by Topcount scintillation counting method; assay type: cell membranes
Homo sapiens [14] = organism: Homo sapiens; assay: Selectivity index, ratio of Ki for human neuronal alpha4beta2 nAChR expressed in human SH-SY5Y cell membrane to Ki for human muscle type nAChR expressed in human TE-671 cell membrane; assay type: cell-based
Oocyte [15] = assay: as §2, with “measured following irradiation with UV LED light irradiation” for “measured”; assay type: cell-based
[16] = Thermodynamic solubility of the compound in aqueous phosphate buffer at pH 7.4 measured after 24 hrs by UV-spectra reader analysis; assay type: physicochemical; details: read-out: Therm_solubility
[17] = biological target: T2, Neuronal acetylcholine receptor subunit alpha-7; assay: Displacement of [125I] alpha bungarotoxin from human neuronal alpha7 nAChR expressed in human SH-SY5Y cell membrane at 10 uM measured after 120 mins by Topcount scintillation counting method; assay type: cell membranes
TE-671 = assay: Displacement of [125I] alpha bungarotoxin from human muscle type nAChR expressed in human TE-671 cell membrane at 10 uM measured after 120 mins by Topcount scintillation counting method; assay type: cell membranes; details: filed as antagonist
Oocyte [18] = assay: Antagonist activity at rat alpha1beta1gamma1delta1 nAChR expressed in Xenopus laevis oocytes assessed as inhibition of ACh puff-induced maximum channel current amplitude by measuring current fraction ratio measured at holding potential of -60 mV by two-electrode voltage clamp technique; assay type: cell-based

T2 sequence (P36544 whole entry): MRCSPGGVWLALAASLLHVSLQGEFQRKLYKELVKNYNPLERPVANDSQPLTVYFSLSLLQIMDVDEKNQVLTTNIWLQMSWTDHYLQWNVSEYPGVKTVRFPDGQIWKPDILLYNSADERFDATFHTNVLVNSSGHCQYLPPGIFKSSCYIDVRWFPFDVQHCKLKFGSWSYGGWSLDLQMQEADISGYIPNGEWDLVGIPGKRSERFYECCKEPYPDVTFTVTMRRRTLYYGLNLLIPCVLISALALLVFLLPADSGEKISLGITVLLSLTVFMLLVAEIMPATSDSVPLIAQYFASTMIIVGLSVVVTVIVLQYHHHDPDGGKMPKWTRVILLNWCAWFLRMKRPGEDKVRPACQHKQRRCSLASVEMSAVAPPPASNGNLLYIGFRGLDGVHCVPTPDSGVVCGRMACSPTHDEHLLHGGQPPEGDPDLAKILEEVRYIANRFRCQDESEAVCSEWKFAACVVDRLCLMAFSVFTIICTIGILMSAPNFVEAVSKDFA
T1 sequence (P17787 whole entry): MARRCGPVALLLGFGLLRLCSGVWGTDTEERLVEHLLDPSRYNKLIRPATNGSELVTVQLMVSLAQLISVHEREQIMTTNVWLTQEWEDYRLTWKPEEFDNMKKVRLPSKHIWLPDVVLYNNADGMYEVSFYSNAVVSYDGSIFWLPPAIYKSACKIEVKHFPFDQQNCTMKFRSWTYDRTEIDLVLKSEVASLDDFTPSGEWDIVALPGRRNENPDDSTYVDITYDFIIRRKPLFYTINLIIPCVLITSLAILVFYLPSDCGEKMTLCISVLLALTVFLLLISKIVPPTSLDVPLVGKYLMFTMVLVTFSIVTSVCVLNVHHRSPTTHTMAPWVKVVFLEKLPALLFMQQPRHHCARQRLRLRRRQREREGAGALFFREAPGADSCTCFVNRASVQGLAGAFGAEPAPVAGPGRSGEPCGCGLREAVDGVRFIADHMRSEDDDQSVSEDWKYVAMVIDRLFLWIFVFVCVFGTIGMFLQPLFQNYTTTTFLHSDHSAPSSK
T1 sequence (P43681 whole entry): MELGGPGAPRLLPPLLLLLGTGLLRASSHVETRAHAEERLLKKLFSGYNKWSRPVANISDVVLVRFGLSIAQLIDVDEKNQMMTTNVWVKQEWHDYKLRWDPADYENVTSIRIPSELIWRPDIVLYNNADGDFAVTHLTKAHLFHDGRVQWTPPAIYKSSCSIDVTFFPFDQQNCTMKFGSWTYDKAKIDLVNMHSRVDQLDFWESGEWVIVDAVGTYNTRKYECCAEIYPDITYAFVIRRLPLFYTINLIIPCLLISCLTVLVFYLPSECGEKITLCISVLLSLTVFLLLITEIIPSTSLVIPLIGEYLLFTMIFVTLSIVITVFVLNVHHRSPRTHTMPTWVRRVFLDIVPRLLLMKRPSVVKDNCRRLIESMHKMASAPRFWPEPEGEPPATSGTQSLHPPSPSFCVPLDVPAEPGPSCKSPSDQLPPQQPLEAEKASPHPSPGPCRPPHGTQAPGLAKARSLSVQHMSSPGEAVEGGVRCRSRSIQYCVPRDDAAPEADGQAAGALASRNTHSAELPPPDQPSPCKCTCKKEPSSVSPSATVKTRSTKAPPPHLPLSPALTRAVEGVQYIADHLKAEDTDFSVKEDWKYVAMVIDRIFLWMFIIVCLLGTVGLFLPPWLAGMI

SMILES	inhibition [4]	Activity (RAW264.7)	Ki [8]	Papp at 4 h [11]	Ki [12]	Ki [13]	solubility thermodynamic at 24 h [16]	other results
C[N+]1(Cc2cccc(/N=N\c3cccc(C[N+]4(C)CC=CCC4)c3)c2)CC=CCC1 (centres undefined)	–	–	–	–	–	–	–	Ki [1]: 880 nM; Ratio (Oocyte [2]): 0.35
C[N+]1(Cc2cccc(/N=N/c3cccc(C[N+]4(C)CCCCC4)c3)c2)CCCCC1.[I-].[I-]	7%	Non-Toxic	910 nM	< 1 ×10⁻⁶ cm/s	> 10000 nM	35 nM	38.4 mM	inhibition (Oocyte [3]): inactive; inhibition (Oocyte [5]): Active; Ki [6]: 460 nM; inhibition (Oocyte [7]): Active; inhibition (Oocyte [9]): Active; Ratio Ki (Homo sapiens [10]): 26; Ratio Ki (Homo sapiens [14]): > 290; inhibition (Oocyte [15]): inactive
C[N+]1(Cc2cccc(/N=N/c3ccccc3)c2)CCCCC1.[I-]	39%	Non-Toxic	> 10000 nM	2 ×10⁻⁶ cm/s	> 10000 nM	> 10000 nM	5.5 mM	inhibition ([17]; filed as antagonist): 48%; inhibition (TE-671): 45%
C[N+]1(Cc2cccc(/N=N/c3cccc(C[N+]4(C)CCCC4)c3)c2)CCCC1.[I-].[I-]	31%	Non-Toxic	2500 nM	< 1 ×10⁻⁶ cm/s	> 10000 nM	42 nM	36.3 mM	Ratio Ki (Homo sapiens [10]): 60; Ratio Ki (Homo sapiens [14]): > 240
C[N+]1(Cc2cccc(/N=N\c3cccc(C[N+]4(C)CCCCC4)c3)c2)CCCCC1	–	–	–	–	–	–	–	Ki [1]: 2600 nM
Clc1ccc([C@H]2C[C@@H]3CC[C@H]2N3)cn1 [(-)-EPIBATIDINE]	–	–	120 nM	–	–	–	–	–
C[N+]1(Cc2cccc(/N=N/c3cccc(C[N+]4(C)CC=CCC4)c3)c2)CC=CCC1.[I-].[I-] (centres undefined)	32%	Non-Toxic	730 nM	< 1 ×10⁻⁶ cm/s	> 10000 nM	100 nM	16.3 mM	Ki [6]: 840 nM; Ratio (Oocyte [18]): 0.11
C[N+]1(Cc2ccc(/N=N/c3ccc(C[N+]4(C)CCCCC4)cc3)cc2)CCCCC1.[I-].[I-]	–	Non-Toxic	> 10000 nM	< 1 ×10⁻⁶ cm/s	1500 nM	1100 nM	34.9 mM	inhibition [17]: 16%
C[N+]1(Cc2cccc(/N=N/c3cccc(C[N+]4(C)CCCCCC4)c3)c2)CCCCCC1.[I-].[I-]	29%	Non-Toxic	1900 nM	< 1 ×10⁻⁶ cm/s	> 10000 nM	220 nM	5.9 mM	Ki [6]: 300 nM
C[N+]1(Cc2cccc(/N=N\c3cccc(C[N+]4(C)CCCCCC4)c3)c2)CCCCCC1	–	–	–	–	–	–	–	Ki [1]: 2600 nM
C[N+]1(Cc2ccc(/N=N/c3ccc(C[N+]4(C)CCCC4)cc3)cc2)CCCC1.[I-].[I-]	–	Non-Toxic	930 nM	< 1 ×10⁻⁶ cm/s	> 10000 nM	200 nM	14.8 mM	inhibition ([4]; filed as antagonist): 45%
